The values below come from patent publication US20090318493A1 (Roche Palo Alto LLC, priority 2008, published 2009).

Each structure is given as a SMILES string. Where two headings read alike, the source gives them in different places.

What all share (assay type): binding
One test has as its target T1, hSERT transporter (Homo sapiens, UniProt P31645).
T1 construct: expressed in transfected cells; membranes prepared
The experiment in a line: Human serotonin transporter (hSERT) scintillation proximity assay, competition with [3H]-Citalopram. From the text:
Screening for Human Serotonin Transporter (hSERT) Antagonists Using a Scintillation Proximity Assay (SPA)
The screening assay of this example was used to determine the affinity of ligands at the hSERT transporter by competition with [^3H]-Citalopram.
Scintillation Proximity Assay (SPA) works by bringing radioligand within close proximity to the bead's scintillant to stimulate light emission. In this assay, the receptor-containing membranes were pre-coupled to the SPA beads and the binding of the appropriate radioligand to the transporter was measured. The light emission was proportional to the amount of bound radioligand. Unbound radioligand produced no signal as a result of distant proximity to scintillant (lack of energy transfer).
Cells are released from culture flasks using PBS for 1-2 minutes. The cells were subsequently centrifuged at 1000 g's for 5 minutes and resuspended in PBS prior to being used in the membrane preparation.
(§1) Cell membranes were prepared using a membrane preparation buffer of 50 mM TRIS (pH 7.4). Cell membranes were prepared from a single cube (7.5×10^9 cells total). Cells were homogenized using a Polytron (setting medium for a 4 second burst). The homogenate was then centrifuged at 48,000×g for 15 minutes, the supernatant subsequently removed and discarded, and the pellet resuspended with fresh buffer. After a second centrifugation, the pellet was re-homogenized and brought to a final volume determined during the assay. Typically, membrane portions were aliquoted in 3 mg/ml (w:v). and stored at −80° C.
Compounds of the invention were diluted from 10 mM to 0.1 nM FAC (10 point curves, whole log/half log dilutions) via a Beckman Biomek 2000 using a serial dilution protocol. The test compounds were then transferred (20 μl/well) and the [^3H]-Citalopram radioligand was added at 50 μl/well. Membrane and beads were prepared to a ratio of 10 μg: 0.7 mg, with 0.7 mg PVT-WGA Amersham beads (Cat# RPQ0282V) added per well. 130 μl of the membrane: bead mixture was added to the assay plate.
The % inhibition was calculated for each compound tested [(Compound counts per minute (CPM) at maximum concentration-Non-Specific CPM)/Total CPM*100].
(§2) where max=total binding, min=non specific binding, x=concentration (M) of the tested compound and n=Hill slope. The inhibition dissociation constant (Ki) of each compound was determined according to the method of Cheng-Prusoff and then converted into negative logarithm (pKi) of the Ki.

A further test concerns the target T2, hNET transporter (Homo sapiens, UniProt P23975).
T2 construct: expressed in transfected cells; membranes prepared
The experiment in a line: Human norepinephrine transporter (hNET) scintillation proximity assay, competition with [3H]-Nisoxetine. The method, then: This assay was used to determine the affinity of ligands for the hNET transporter by competition with [^3H]-Nisoxetine. As in the hSERT assay of the above example, receptor-containing membranes were pre-coupled to the SPA beads and the binding of the appropriate radioligand to the transporter was measured. The light emission was proportional to the amount of bound radioligand, with unbound radioligand producing no signal.
HEK-293 cells (Tatsumi et al., Eur. J. Pharmacol. 1997, 30, 249-258) stably expressing recombinant hNET (Clone: HEK-hNET #2) were maintained with media (DMEM hi glucose with 10% FBS, 300 μg/ml G418 and 2 mM L-Glutamine) and incubated at 37° C. with 5% CO2. Cells were released from culture flasks using PBS for 1-2 minutes. The cells were subsequently centrifuged at 1000 g's for 5 minutes and resuspended in PBS prior to being used in the membrane preparation.
as §1, with “(7.5×10^9cells” for “(7.5×10^9 cells”, “3-6 mg/mil” for “3 mg/ml”
^3[H] […] Compounds of the invention were diluted from 10 mM to 0.1 nM FAC (10 point curves, whole log /half log dilutions) via a Beckman Biomek 2000 using a serial dilution protocol. The test compounds were then transferred (20 μl/well) and the radioligand was added at 50 μl/well. Membrane and beads were prepared to a ratio of 10 μg: 0.7 mg, with 0.7 mg PVT-WGA Amersham beads (Cat# RPQ0282V) added per well. 130 μl of the membrane: bead mixture was added to the assay plate. The mixtures were allowed to stand at room temperature for one hour, and were then counted on a Packard TopCount LCS, a generic SPA counting protocol settings (Energy Range: Low, Efficiency Mode: Normal, Region A: 1.50-35.00, Region B: 1.50-256.00, Count Time (min.): 0.40, Background Subtract: none, Half-Life Correction: no, Quench Indicator: tSIS, Platemap blank subtraction: No, Cross talk reduction: Off).
The % inhibition was calculated for each compound tested [(Compound CPM at maximum concentration-Non-Specific CPM)/Total CPM*100]. The concentration producing 50% inhibition (IC50) was determined using an iterative non-linear curve fitting technique with Activity Base/Xlfit using the following equation:
as §2

The next test addresses T3, hDAT (Homo sapiens, UniProt Q01959).
T3 construct: expressed in transfected cells; plated whole cells
The experiment in a line: Human dopamine transporter scintillation proximity assay, competition with [3H]-Vanoxerine. As for the experimental part: This assay was used to determine the affinity of ligands for the dopamine transporter by competition with [^3H]-Vanoxerine.
Cells were plated four hours prior to experiment by placing approximately 30,000 cells per well (in PBS) on white, opaque Cell-Tak coated 96 well plates. Extra buffer was apriated from the cell plates using an ELx405 plate washer.
Compounds of the invention were diluted from 10 mM to 0.1 nM FAC (10 point curves, whole log/half log dilutions) via a Beckman Biomek 2000 using a 10-point dilution protocol. The mixtures were allowed to stand at room temperature for 30 minutes, and were then counted on a Packard TopCount LCS, a generic SPA counting protocol settings, Count Time (min.): 0.40, Background Subtract: none, Half-Life Correction: none, Quench Indicator: tSIS, Platemap blank subtraction: none, Cross talk reduction: Off).
The % inhibition was calculated for each compound tested [(Compound CPM at maximum concentration-Non-Specific CPM)/Total CPM*100].
as §2
On the technique in general: Scintillation proximity formats need no separation of bound from free tracer.

The mark [1] stands for this setting: Table 1, read-out: pIC50 NET (converted).
Setting [2] is: Table 1, read-out: pIC50 DAT (converted).
Where [3] appears, read: Table 1, read-out: pIC50 SERT (converted).

T1 sequence (P31645 whole entry): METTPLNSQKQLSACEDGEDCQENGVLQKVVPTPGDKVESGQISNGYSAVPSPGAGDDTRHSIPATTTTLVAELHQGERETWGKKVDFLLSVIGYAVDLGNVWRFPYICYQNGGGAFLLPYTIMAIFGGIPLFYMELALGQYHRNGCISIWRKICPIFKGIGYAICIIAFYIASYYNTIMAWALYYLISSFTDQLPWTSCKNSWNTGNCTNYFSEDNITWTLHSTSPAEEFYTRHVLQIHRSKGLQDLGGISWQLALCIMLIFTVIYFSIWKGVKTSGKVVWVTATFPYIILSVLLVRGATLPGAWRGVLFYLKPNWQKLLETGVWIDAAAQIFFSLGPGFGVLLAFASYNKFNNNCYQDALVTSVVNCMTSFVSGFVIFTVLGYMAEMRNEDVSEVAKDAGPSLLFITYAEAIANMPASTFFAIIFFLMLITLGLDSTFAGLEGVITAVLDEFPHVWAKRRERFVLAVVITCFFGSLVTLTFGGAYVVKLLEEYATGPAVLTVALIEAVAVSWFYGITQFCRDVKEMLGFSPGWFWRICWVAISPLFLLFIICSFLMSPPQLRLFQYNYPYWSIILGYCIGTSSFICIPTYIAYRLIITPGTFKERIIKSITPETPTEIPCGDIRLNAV
T2 sequence (P23975 whole entry): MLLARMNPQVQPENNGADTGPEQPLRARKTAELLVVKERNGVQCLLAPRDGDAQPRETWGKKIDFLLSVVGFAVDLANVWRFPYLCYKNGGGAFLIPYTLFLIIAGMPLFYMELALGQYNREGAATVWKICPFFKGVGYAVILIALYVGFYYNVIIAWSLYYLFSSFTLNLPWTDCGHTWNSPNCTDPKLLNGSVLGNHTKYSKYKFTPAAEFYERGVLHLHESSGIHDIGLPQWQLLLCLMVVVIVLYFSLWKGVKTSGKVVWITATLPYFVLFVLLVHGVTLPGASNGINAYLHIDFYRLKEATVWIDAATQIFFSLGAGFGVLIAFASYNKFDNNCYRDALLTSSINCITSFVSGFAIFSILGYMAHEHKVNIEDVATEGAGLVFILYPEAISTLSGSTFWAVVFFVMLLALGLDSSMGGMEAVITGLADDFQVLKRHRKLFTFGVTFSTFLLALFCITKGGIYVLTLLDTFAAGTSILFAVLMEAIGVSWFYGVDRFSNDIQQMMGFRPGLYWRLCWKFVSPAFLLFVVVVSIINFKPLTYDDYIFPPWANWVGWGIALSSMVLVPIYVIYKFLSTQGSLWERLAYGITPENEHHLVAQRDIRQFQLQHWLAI
T3 sequence (Q01959 whole entry): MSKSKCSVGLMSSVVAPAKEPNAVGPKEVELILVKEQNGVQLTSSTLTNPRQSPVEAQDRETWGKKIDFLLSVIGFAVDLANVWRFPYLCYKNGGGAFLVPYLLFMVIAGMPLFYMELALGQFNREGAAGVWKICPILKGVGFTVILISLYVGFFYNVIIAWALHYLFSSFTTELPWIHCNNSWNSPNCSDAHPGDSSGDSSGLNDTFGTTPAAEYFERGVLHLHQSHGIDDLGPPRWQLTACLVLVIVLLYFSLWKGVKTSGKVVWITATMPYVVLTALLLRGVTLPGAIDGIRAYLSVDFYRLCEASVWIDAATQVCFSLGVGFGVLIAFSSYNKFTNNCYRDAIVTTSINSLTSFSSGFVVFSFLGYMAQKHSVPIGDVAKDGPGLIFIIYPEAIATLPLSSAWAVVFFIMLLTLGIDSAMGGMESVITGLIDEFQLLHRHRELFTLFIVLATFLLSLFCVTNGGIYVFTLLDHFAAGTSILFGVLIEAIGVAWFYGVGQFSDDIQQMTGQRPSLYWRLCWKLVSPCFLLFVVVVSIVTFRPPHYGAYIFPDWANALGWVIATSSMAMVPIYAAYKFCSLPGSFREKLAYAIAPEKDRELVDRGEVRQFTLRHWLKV

For the compound `CCCC[C@@]1(C(=O)c2ccc(Cl)c(Cl)c2)CC[C@@H]2CC[C@H]1N2C` (mixture of isomers) [Compound 54, ((1R,2R,SR)-2-Butyl-8-methyl-8-aza-bicyclo[3.2.1]oct-2-yl)-(3,4-dichloro-phenyl)-methanone], the values for the IC50 on hSERT transporter, at hNET transporter (setting [1]) and at hDAT were 331 nM, 501 nM and 28.2 nM, respectively.
Regarding `CC(C)(C)CCC1(C(=O)c2ccc(Cl)c(Oc3ccccc3F)c2)CCNC1` (stereo not shown) [Compound 9, [4-Chloro-3-(2-fluoro-phenoxy)-phenyl]-[3-(3,3-dimethyl-butyl)-pyrrolidin-3-yl]-methanone], the IC50 at hNET transporter (setting [1]) is 45.7 nM; at hDAT (setting [2]) it was 1120 nM.
In the same order, the values of `CC(C)(C)CCC1(C(=O)c2ccc(Cl)c(OCc3ccccc3)c2)CCNC1` (stereo not shown) [Compound 5, (3-Benzyloxy-4-chloro-phenyl)-[3-(3,3-dimethyl-butyl)-pyrrolidin-3-yl]-methanone] are 363 nM and 1450 nM.
On to `CCCC1(C(=O)c2ccc(Cl)c(Sc3ccccc3)c2)CCNC1` (stereo not shown) [Compound 15, (4-Chloro-3-phenylsulfanyl-phenyl)-(3-propyl-pyrrolidin-3-yl)-methanone], for which the IC50 on hSERT transporter was 34.7 nM; on hNET transporter it was 87.1 nM; on hDAT (setting [2]) it was 110 nM.
For the compound `CC[C@@]1(C(=O)c2ccc(Cl)c(Cl)c2)CC[C@@H]2CC[C@H]1N2C` [Compound 53, (3,4-Dichloro-phenyl)-((1R,2R,5R)-2-ethyl-8-methyl-8-aza-bicyclo[3.2.1]oct-2-yl)-methanone], the IC50 at hSERT transporter is 41.7 nM; at hDAT it was 288 nM.
For `CC(C)CC1(C(=O)c2ccc(Cl)c(Oc3ccccc3)c2)CCNC1` (stereo not shown) [Compound 31, (4-Chloro-3-phenoxy-phenyl)-(3-isobutyl-pyrrolidin-3-yl)-methanone], the IC50 on hSERT transporter was 3.72 nM; on hNET transporter (setting [1]), 1.91 nM; on hDAT, 26.3 nM.
In the same order, the values of `CC[C@@]1(C(=O)c2ccc(Cl)c(Cl)c2)CC[C@@H]2CC[C@H]1N2` [Compound 48, (3,4-Dichloro-phenyl)-((1R,2R,5R)-2-ethyl-8-aza-bicyclo[3.2.1]oct-2-yl)-methanone] are 7.76 nM, 1150 nM and 209 nM.
On to `CCCC1(C(=O)c2ccc3ccccc3c2)CCNC1` (stereo not shown) [naphthalen-2-yl-(3-propyl-pyrrolidin-3-yl)-methanone], for which, on hSERT transporter (SPA, [3H]-Citalopram, approximate value, read-out: pKi human serotonin transporter (converted)), the Ki was around 0.151 nM.
`CCCC1(C(=O)c2ccc(Cl)c(-c3ccn[nH]3)c2)CCCNC1` (stereo not shown) [Compound 50, [4-Chloro-3-(2H-pyrazol-3-yl)-phenyl]-(3-propyl-piperidin-3-yl)-methanone]: the results for the IC50 at hSERT transporter, on hNET transporter and on hDAT (setting [2]) were 7.76 nM, 30.9 nM and 4270 nM, respectively.
Regarding `CC(C)(C)CCC1(C(=O)c2ccc(Cl)c(Oc3ccc(F)cc3)c2)CCNC1` (stereo not shown) [Compound 8, [4-Chloro-3-(4-fluoro-phenoxy)-phenyl]-[3-(3,3-dimethyl-butyl)-pyrrolidin-3-yl]-methanone], the IC50 on hSERT transporter (setting [3]) is 120 nM; on hNET transporter (setting [1]) it was 77.6 nM; at hDAT (setting [2]) it was 1410 nM.
In the same order, the values of `CC1(CC2(C(=O)c3ccc(Cl)c(Cl)c3)CCNCC2)CC1` [Compound 34, (3,4-Dichloro-phenyl)-[4-(1-methyl-cyclopropylmethyl)-piperidin-4-yl]-methanone] are 0.501 nM, 66.1 nM and 2.24 nM.
Turning to `CNc1ccc(C(=O)C2(CC(C)C)CCNCC2)cc1Cl` [Compound 44, (3-Chloro-4-methylamino-phenyl)-(4-isobutyl-piperidin-4-yl)-methanone], the IC50 was 0.724 nM at hSERT transporter, 51.3 nM at hNET transporter (setting [1]) and 57.5 nM at hDAT.
Consider `O=C(c1ccc(Cl)c(Cl)c1)C1(CC2CCOCC2)CCNCC1` [Compound 41, (3,4-Dichloro-phenyl)-[4-(tetrahydro-pyran-4-ylmethyl)-piperidin-4-yl]-methanone], for which the IC50 at hSERT transporter (setting [3]) was 1.15 nM; at hNET transporter (setting [1]), 209 nM; at hDAT (setting [2]), 7.94 nM.
Regarding `CCCC1(C(=O)c2ccc(Cl)c(OCc3ccccc3)c2)CCNC1` (stereo not shown) [Compound 10, (3-Benzyloxy-4-chloro-phenyl)-(3-propyl-pyrrolidin-3-yl)-methanone], the values for the IC50 on hSERT transporter and on hNET transporter (setting [1]) were 20.4 nM and 1700 nM, respectively.
For `CCCC1(C(=O)c2ccc(Cl)c(OCC3CCOCC3)c2)CCNC1` (stereo not shown) [Compound 13, [4-Chloro-3-(tetrahydro-pyran-4-ylmethoxy)-phenyl]-(3-propyl-pyrrolidin-3-yl)-methanone], at hSERT transporter (setting [3]), the IC50 is 145 nM.
For `CCCC1(C(=O)c2ccc(Cl)c(OC(F)(F)F)c2)CCNC1` (stereo not shown) [Compound 14, (4-Chloro-3-trifluoromethoxy-phenyl)-(3-propyl-pyrrolidin-3-yl)-methanone], the values for the IC50 at hSERT transporter and at hNET transporter (setting [1]) were 2.75 nM and 302 nM, respectively.
As to `CCCC1(C(=O)c2ccc(Cl)c(-n3ccnc3)c2)CCCNC1` (stereo not shown) [Compound 58, (4-Chloro-3-imidazol-1-yl-phenyl)-(3-propyl-piperidin-3-yl)-methanone], the IC50 on hSERT transporter was 79.4 nM; at hDAT (setting [2]), 1480 nM.
Take `CCCC1(C(=O)c2ccc(Br)c(Oc3ccccc3)c2)CCNC1` (stereo not shown) [Compound 20, (4-Bromo-3-phenoxy-phenyl)-(3-propyl-pyrrolidin-3-yl)-methanone]: the IC50 on hSERT transporter is 12.6 nM; on hNET transporter (setting [1]), 7.94 nM.
Consider `CCCC1(C(=O)c2ccc(Cl)c(-c3cccnc3)c2)CCCNC1` (stereo not shown) [Compound 55, (4-Chloro-3-pyridin-3-yl-phenyl)-(3-propyl-piperidin-3-yl)-methanone], for which the IC50 at hSERT transporter (setting [3]) was 245 nM.
As for `CCCC1(C(=O)c2ccc(-n3ccnc3)c(Br)c2)CCCNC1` (stereo not shown) [Compound 57, (3-Bromo-4-imidazol-1-yl-phenyl)-(3-propyl-piperidin-3-yl)-methanone], the results for the IC50 on hSERT transporter and on hDAT (setting [2]) were 91.2 nM and 4270 nM, respectively.
